Experimental findings from US20230183248A1, “PYRROLO[1,2-D][1,2,4]TRIAZINE-2-YL-ACETAMIDES AS INHIBITORS OF THE NLRP3 INFLAMMASOME PATHWAY” (JANSSEN PHARMACEUTICA NV, priority 2020, published 2023) are described below.

Bounds are passed on as bounds.

Data set [1] concerns IL-1β. The experiment in a line: PBMC assay: LPS-stimulated IL-1β release. Type of data set: cell-based. The note with it: human PBMCs, 30 min compound pre-incubation, 100 ng/ml LPS for 6 hrs, supernatant, MSD. As for the experimental part: (§1) Peripheral venous blood was collected from healthy individuals and human peripheral blood mononuclear cells (PBMCs) were isolated from blood by Ficoll-Histopaque (Sigma-Aldrich, A0561) density gradient centrifugation. After isolation, PBMCs were stored in liquid nitrogen for later use. Upon thawing, PBMC cell viability was determined in growth medium (RPMI media supplemented with 10% fetal bovine serum, 1% Pen-Strep and 1% L-glutamine). Compounds were spotted in a 1:3 serial dilution in DMSO and diluted to the final concentration in 30 µl medium in 96 well plates (Falcon, 353072). PBMCs were added at a density of 7.5 × 10^4 cells per well and incubated for 30 min in a 5% CO2 incubator at 37° C. LPS stimulation was performed by addition of 100 ng/ml LPS (final concentration, Invivogen, tlrl-smlps) for 6 hrs followed by collection of cellular supernatant and the analysis of IL-1β […] and TNF cytokines levels (µM) via MSD technology according to manufacturers’ guidelines (MSD, K151A0H).
(§2) The IC50 values (for IL-1β) and EC50 values (TNF) were obtained on compounds of the invention/examples, and are depicted in the following table: […]

In data set [2] the test system is TNF. The experiment in a line: PBMC assay: LPS-stimulated TNF cytokine levels. Type of data set: cell-based. The note with it: Homo sapiens, PBMC, human PBMCs, 30 min compound pre-incubation, 100 ng/ml LPS for 6 hrs, supernatant, MSD. As for the experimental part: as §1, §2

A word on the IC50: it is the midpoint of a concentration-inhibition curve. A high value points to weaker potency in that assay. One may read the melting point as the temperature of the solid-liquid transition. For orientation: EC50 means the concentration that produces a half-maximal response. Lower therefore signals higher potency in that assay. Compound `CC(C)c1nn(CC(=O)Nc2ccncn2)c(=O)c2cc(F)cn12` [Compound 7F] registered a melting point of 194.5 °C. Moreover, the IC50 in data set [1] (Homo sapiens, PBMC) is over 10 µM. The compound further showed a concentration for a half-maximal effect (EC50) in data set [2] of over 10 µM.
`CC(C)c1nn(CC(=O)Nc2ccncc2F)c(=O)c2cc(Cl)cn12` [Compound 9F] returned a melting point of 211.91 °C. For the same compound, half-maximal inhibition in data set [1] (Homo sapiens, PBMC) (IC50) required 3.4 µM. The same compound came in with a concentration giving a half-maximal response (EC50) in data set [2] of over 10 µM.
The corresponding values for `CCc1nn(CC(=O)Nc2ccccc2OC)c(=O)c2cccn12` [Compound 13F] are 167.68 °C, over 10 µM and over 10 µM.
Consider `C=C(C)c1cc2c(=O)n(CC(=O)Nc3ccncn3)nc(C(C)C)n2c1` [Compound 16F, 2-(4-isopropyl-1-oxo-7-(prop-1-en-2-yl)pyrrolo[1,2-d][1,2,4]triazin-2(1H)-yl)-N-(pyrimidin-4-yl)acetamide], for which the melting point amounted to 185.03 °C. Moreover, the IC50 in data set [1] (Homo sapiens, PBMC) is 3.7 µM. The EC50 in data set [2] is over 10 µM.
Turning to `CCc1cc2c(=O)n(CC(=O)Nc3ccncc3F)nc(C(C)C)n2c1` [Compound 22F], the melting point is 142.64 °C. For the same compound, the IC50 in data set [1] (Homo sapiens, PBMC) was determined as 0.67 µM. The compound also registered a concentration for a half-maximal effect (EC50) in data set [2] of over 10 µM.
For the compound `COCCc1nn(CC(=O)Nc2ccncn2)c(=O)c2cc(C(C)C)cn12` [Compound 24F], the melting point worked out at 184.19 °C. The IC50 in data set [1] (Homo sapiens, PBMC) amounted to 0.89 µM. Besides, the EC50 in data set [2] was over 10 µM.
Compound `CCN(C)c1nn(CC(=O)Nc2ccncn2)c(=O)c2cc(C(C)C)cn12` [Compound 26F] registered a melting point of 150.14 °C. In data set [1] (Homo sapiens, PBMC), this compound displayed an IC50 of 1.32 µM. This compound had a concentration giving a half-maximal response (EC50) in data set [2] of over 10 µM.
As to `C=C(OC)c1nn(CC(=O)Nc2ccncn2)c(=O)c2cc(C(C)C)cn12` [Compound 27F, 2-[7-isopropyl-4-(1-methoxyvinyl)-1-oxo-pyrrolo[1,2-d][1,2,4]triazin-2-yl]-N-pyrimidin-4-yl-acetamide], the melting point was determined as 201.01 °C. Besides, in data set [1] (Homo sapiens, PBMC), half-maximal inhibition (IC50) was put at 1.89 µM. Further, the EC50 in data set [2] is over 10 µM.
As for `CC(C)c1nn(CC(=O)Nc2ccncn2)c(=O)c2cc(C(F)F)cn12` [Compound 29F], the melting point came to 216.46 °C. Further, in data set [1] (Homo sapiens, PBMC), half-maximal inhibition (IC50) required 1.67 µM. The compound further gave a concentration for a half-maximal effect (EC50) in data set [2] of over 10 µM.
In turn, `CC(=O)c1nn(CC(=O)Nc2ccncn2)c(=O)c2cc(C(C)C)cn12` [Compound 35F, 2-(4-acetyl-7-isopropyl-1-oxo-pyrrolo[1,2-d][1,2,4]triazin-2-yl)-N-pyrimidin-4-yl-acetamide] showed a melting point of 284.78 °C. Also, the half-maximal inhibitory concentration (IC50) in data set [1] (Homo sapiens, PBMC) was over 10 µM. For the same compound, the EC50 in data set [2] was over 10 µM.
`CC(C)c1cc2c(=O)n(CC(=O)Nc3ccncn3)nc(C(C)O)n2c1` (stereo not drawn) [Compound 36F, 2-[4-(1-hydroxyethyl)-7-isopropyl-1-oxo-pyrrolo[1,2-d] [1,2,4]triazin-2-yl]-N-pyrimidin-4-yl-acetamide] yielded a melting point of 247.56 °C. Moreover, in data set [1] (Homo sapiens, PBMC), the 50% inhibitory concentration (IC50) came to 5.05 µM. For the same compound, the EC50 in data set [2] is over 10 µM.
`CC(C)c1nn(CC(=O)Nc2ccncn2)c(=O)c2cc(-c3ccccc3)cn12` [Compound 47F] returned a melting point of 209.7 °C. In data set [1] (Homo sapiens, PBMC), this compound displayed a concentration for half-maximal inhibition (IC50) of over 10 µM. In data set [2], the EC50 is over 10 µM.
On to `CC(C)c1nn(CC(=O)NC2CCOCC2)c(=O)c2cc(-c3ccccc3)cn12` [Compound 48F], for which the melting point is 217.95 °C. The compound further registered a 50% inhibitory concentration (IC50) in data set [1] (Homo sapiens, PBMC) of over 10 µM. This compound also registered an EC50 in data set [2] of over 10 µM.
On to `CC(C)c1nn(CC(=O)Nc2ccncn2)c(=O)c2cc(C3CC3)cn12` [Compound 50F], for which the melting point turned out to be 182.51 °C. The half-inhibitory concentration (IC50) in data set [1] (Homo sapiens, PBMC) is about 0.38 µM. The 50% effective concentration (EC50) in data set [2] was over 10 µM.
In the case of `CC(C)c1cc2c(=O)n(CC(=O)NC3CCOCC3)nc(C(C)C)n2c1` [Compound 51F], the melting point turned out to be 181.03 °C. This compound also yielded an IC50 in data set [1] (Homo sapiens, PBMC) of about 1.77 µM. Moreover, the EC50 in data set [2] is over 10 µM.
Regarding `CC(C)c1cc2c(=O)n(CC(=O)Nc3ccncn3)nc(N(C)C)n2c1` [Compound 55F], the melting point stood at 166.33 °C. In data set [1] (Homo sapiens, PBMC), this compound yielded a half-maximal inhibitory concentration (IC50) of 0.36 µM. This compound returned an EC50 in data set [2] of over 10 µM.
As for `CCc1cc2c(=O)n(CC(=O)N[C@H]3C[C@@](C)(O)C3)nc(N(C)C)n2c1` [Compound 58F], the melting point was 171.4 °C. The compound also showed a half-inhibitory concentration (IC50) in data set [1] (Homo sapiens, PBMC) of 0.37 µM.
The compound `CCCc1cc2c(=O)n(CC(=O)Nc3ccncn3)nc(C(C)C)n2c1` [Compound 59F] showed a melting point of 149.7 °C. In data set [1] (Homo sapiens, PBMC), this compound gave an IC50 of 0.47 µM. Besides, the EC50 in data set [2] is over 10 µM.
Turning to `CCCCc1nn(CC(=O)Nc2ccncn2)c(=O)c2cc(C(C)C)cn12` [Compound 61F], the melting point was determined as 166.41 °C. The same compound came in with a half-inhibitory concentration (IC50) in data set [1] (Homo sapiens, PBMC) of 1.01 µM. In data set [2], this compound gave an EC50 of over 10 µM.
Consider `COCc1nn(CC(=O)Nc2ccncn2)c(=O)c2cc(C(C)C)cn12` [Compound 63F], for which the melting point is 201.37 °C. In data set [1] (Homo sapiens, PBMC), this compound returned a half-maximal inhibitory concentration (IC50) of 1.37 µM. The compound further came in with a concentration for a half-maximal effect (EC50) in data set [2] of over 10 µM.
In turn, `C/C(=N/O)c1nn(CC(=O)N[C@H]2C[C@@](C)(O)C2)c(=O)c2cc(C(C)C)cn12` [Compound 64F] gave a melting point of 224.87 °C. Also, the IC50 in data set [1] (Homo sapiens, PBMC) is 0.32 µM. Further, the concentration giving a half-maximal response (EC50) in data set [2] is over 10 µM.
As for `CC(=O)NC(C)c1nn(CC(=O)Nc2ccncn2)c(=O)c2cc(C(C)C)cn12` (stereo not drawn) [Compound 65F], the melting point stood at 279.37 °C. Also, the IC50 in data set [1] (Homo sapiens, PBMC) came out at 7.08 µM. The same compound displayed an IC50 in data set [1] of 6.9 µM. In data set [2], this compound registered an EC50 of over 10 µM.
Take `CC(C)c1cc2c(=O)n(CC(=O)N[C@H]3C[C@@](C)(O)C3)nc(C(C)C)n2c1` [Compound 68F]: the melting point was 196.59 °C. Further, half-maximal inhibition in data set [1] (Homo sapiens, PBMC) (IC50) required 0.16 µM. This compound displayed an EC50 in data set [2] of over 10 µM.
For `CCc1cc2c(=O)n(CC(=O)Nc3ccncn3)nc(N(C)C)n2c1` [Compound 73F, 2-(4-(dimethylamino)-7-ethyl-1-oxopyrrolo[1,2-d][1,2,4]triazin-2(1H)-yl)-N-(pyrimidin-4-yl)acetamide], the melting point is 178.1 °C. In data set [1] (Homo sapiens, PBMC), this compound displayed a concentration for half-maximal inhibition (IC50) of 0.35 µM. For the same compound, in data set [2], the 50% effective concentration (EC50) is over 10 µM.
Compound `CCc1cc2c(=O)n(CC(=O)Nc3ccncn3)nc(N(C)CC)n2c1` [Compound 74F] registered a melting point of 156.3 °C. In addition, half-maximal inhibition in data set [1] (Homo sapiens, PBMC) (IC50) was put at 1.4 µM. This compound came in with an EC50 in data set [2] of over 10 µM.
The compound `CC(=O)c1cc2c(=O)n(CC(=O)Nc3ccncn3)nc(C(C)C)n2c1` [Compound 85F, 2-(7-acetyl-4-isopropyl-1-oxopyrrolo[1,2-d][1,2,4]triazin-2(1H)-yl)-N-(pyrimidin-4-yl)acetamide] showed a melting point of 262.3 °C. This compound also showed an IC50 in data set [1] (Homo sapiens, PBMC) of over 10 µM. The compound further came in with an EC50 in data set [2] of over 10 µM.
`CC(C)c1nn(CC(=O)Nc2ccncn2)c(=O)c2cc(-c3cc[nH]n3)cn12` [Compound 92F] displayed a 50% inhibitory concentration (IC50) in data set [1] (Homo sapiens, PBMC) of over 10 µM. The compound further showed an EC50 in data set [2] of over 10 µM.
In data set [1] (Homo sapiens, PBMC), `CC(C)c1nn(CC(=O)Nc2ccncn2)c(=O)c2cc(-c3cn(C)cn3)cn12` [Compound 93F, 2-(4-isopropyl-7-(1-methyl-1H-imidazol-4-yl)-1-oxopyrrolo[1,2-d][1,2,4]triazin-2(1H)-yl)-N-(pyrimidin-4-yl)acetamide] had an IC50 of over 10 µM. Further, the EC50 in data set [2] was over 10 µM.
Regarding `CC(C)c1nn(CC(=O)Nc2ccncn2)c(=O)c2cc(-c3c[nH]cn3)cn12` [Compound 94F, 2-(7-(1H-imidazol-4-yl)-4-isopropyl-1-oxopyrrolo[1,2-d][1,2,4]triazin-2(1H)-yl)-N-(pyrimidin-4-yl)acetamide], the half-inhibitory concentration (IC50) in data set [1] (Homo sapiens, PBMC) was over 10 µM. Besides, the 50% effective concentration (EC50) in data set [2] is over 10 µM.
